Measured values published in patent publication US20120034613A1, “Apparatus and Method for Testing Relationships Between Gene Expression and Physical Appearance of Skin” (NSE Products, Inc., priority 2010, published 2012).

System: EpidermFT™ Skin Model (EFT-400) full thickness skin cultures
Assay: Affymetrix GeneChip HG U133 Plus 2.0 microarray global gene expression, agent-exposed vs untreated skin cultures
Type: cell-based, human
Settings: 0.5% vs untreated, 24 hr; down

In the case of `OCc1ccccc1O[C@@H]1O[C@H](CO)[C@@H](O)[C@H](O)[C@H]1O` [Salicin, 2-(Hydroxymethyl)phenyl β-D-glucospyranoside], the “Fold change ABHD12 (228124_at)” value is reported as 3.821, the “Fold change ACAD8 (221669_s_at)” value is reported as 3.404 and the “Fold change ACOX1 (209600_s_at)” value is reported as 3.361. The “Fold change ACOX1 (213501_at)” value was 3.854, the “Fold change ACOX1 (227962_at)” value was 3.737 and the “Fold change ADAP2 (222876_s_at)” value was 3.579. The “Fold change AGPAT9 (224480_s_at)” value was 3.106, the “Fold change AHNAK2 (1558378_a_at)” value was 3.138 and the “Fold change AKTIP (223894_s_at)” value was 3.08. The “Fold change ALDH3A2 (210544_s_at)” value was 3.633, the “Fold change ALDH3B2 (204941_s_at)” value was 3.429 and the “Fold change ALOX15B (206714_at)” value was 3.512. The “Fold change ANKFN1 (1553211_at)” value was 3.62, the “Fold change ANKRD35 (231118_at)” value was 3.392 and the “Fold change ANKRD57 (219496_at)” value was 3.699. For the same molecule, the “Fold change APOBEC3B (206632_s_at)” value was 3.0369, the “Fold change AQP3 (39248_at)” value was 3.579 and the “Fold change ARHGEF5 (204765_at)” value was 3.689. The “Fold change ARL4A (205020_s_at)” value was 3.913, the “Fold change ARL5A (218150_at)” value was 3.293 and the “Fold change ARL5A (226617_at)” value was 3.1. The “Fold change ASPHD2 (227015_at)” value was 3.321, the “Fold change BCL11A (210347_s_at)” value was 3.112 and the “Fold change BEND5 (219670_at)” value was 3.381. For the same molecule, the “Fold change BEX2 (224367_at)” value was 3.212, the “Fold change BTBD16 (1552566_at)” value was 3.232 and the “Fold change C1orf106 (219010_at)” value was 3.744. The “Fold change C1orf161 (1553333_at)” value was 3.474, the “Fold change C2orf54 (220149_at)” value was 3.333 and the “Fold change C4orf32 (227856_at)” value was 3.328. The “Fold change C10orf57 /// C10orf58 (224435_at)” value was 3.829, the “Fold change C10orf99 (227735_s_at)” value was 3.719 and the “Fold change C19orf33 (223631_s_at)” value was 3.241. The “Fold change C20orf74 (232500_at)” value was 3.366, the “Fold change CA2 (209301_at)” value was 3.433 and the “Fold change CAMK1D (235626_at)” value was 3.726. For the same molecule, the “Fold change CARD10 (210026_s_at)” value was 3.475, the “Fold change CCNB1 (228729_at)” value was 3.349 and the “Fold change CD9 (201005_at)” value was 3.444. The “Fold change CDH3 (203256_at)” value was 3.506, the “Fold change CDKN2B (236313_at)” value was 3.737 and the “Fold change CDS1 (226187_at)” value was 3.08. The “Fold change CGN (223232_s_at)” value was 3.873, the “Fold change CHAC2 (235117_at)” value was 3.55 and the “Fold change CHD7 (218829_s_at)” value was 3.089. The “Fold change CLDN4 (201428_at)” value was 3.454, the “Fold change CLTB (205172_x_at)” value was 3.663 and the “Fold change CLTB (211043_s_at)” value was 3.446. The “Fold change COBLL1 (215393_s_at)” value was 3.301, the “Fold change COL17A1 (204636_at)” value was 3.576 and the “Fold change CPEB3 (205773_at)” value was 3.876. For the same molecule, the “Fold change CTA-221G9.4 /// LOC100131004 (225525_at)” value was 3.401, the “Fold change CYP2R1 (227109_at)” value was 3.716 and the “Fold change CYP27C1 (1568868_at)” value was 3.64. For the same molecule, the “Fold change D4S234E (209569_x_at)” value was 3.313, the “Fold change D4S234E (209570_s_at)” value was 3.871 and the “Fold change DAAM1 (216060_s_at)” value was 3.84. For the same molecule, the “Fold change DAAM1 (226666_at)” value was 3.519, the “Fold change DAPL1 (229290_at)” value was 3.089 and the “Fold change DGAT2 (224327_s_at)” value was 3.427. The “Fold change DGAT2 (226064_s_at)” value was 3.883, the “Fold change DHRS1 (213279_at)” value was 3.907 and the “Fold change DHRS11 (218756_s_at)” value was 3.13. For the same molecule, the “Fold change DLX3 (231778_at)” value was 3.089, the “Fold change DOCK8 (225502_at)” value was 3.608 and the “Fold change DUOX1 (219597_s_at)” value was 3.516. For the same molecule, the “Fold change DUOXA1 (1554648_a_at)” value was 3.865, the “Fold change EBP (213787_s_at)” value was 3.0355 and the “Fold change EFNA5 (214036_at)” value was 3.139. The “Fold change EGR1 (201693_s_at)” value was 3.681, the “Fold change EGR2 (205249_at)” value was 3.497 and the “Fold change ELOVL6 (204256_at)” value was 3.121. The “Fold change ELOVL6 (210868_s_at)” value was 3.441, the “Fold change ENC1 (201340_s_at)” value was 3.246 and the “Fold change EPB41L4A (228256_s_at)” value was 3.298. For the same molecule, the “Fold change EPHA4 (229374_at)” value was 3.101, the “Fold change EPN3 (223895_s_at)” value was 3.929 and the “Fold change F3 (204363_at)” value was 3.192. The “Fold change F11R (222354_at)” value was 3.541, the “Fold change FA2H (219429_at)” value was 3.37 and the “Fold change FABP7 (205029_s_at)” value was 3.263. The “Fold change FABP7 (205030_at)” value was 3.804, the “Fold change FAM63A (221856_s_at)” value was 3.1 and the “Fold change FAM72A /// FAM72B /// GCUD2 (225834_at)” value was 3.211. For the same molecule, the “Fold change FAM83B (1563900_at)” value was 3.497, the “Fold change FAM83D (225687_at)” value was 3.895 and the “Fold change FAM83H (226129_at)” value was 3.739. The “Fold change FAM84B (225864_at)” value was 3.566, the “Fold change FAM169A (235048_at)” value was 3.759 and the “Fold change FBXO3 (218432_at)” value was 3.446. The “Fold change FCHSD1 (226698_at)” value was 3.141, the “Fold change FERMT1 (218796_at)” value was 3.784 and the “Fold change FGFBP1 (205014_at)” value was 3.406. The “Fold change FIGN (239710_at)” value was 3.472, the “Fold change FLNB (208614_s_at)” value was 3.765 and the “Fold change FLVCR2 (219316_s_at)” value was 3.532. The “Fold change FLVCR2 (222866_s_at)” value was 3.373, the “Fold change FMO5 (205776_at)” value was 3.223 and the “Fold change FOXE1 (206912_at)” value was 3.121. For the same molecule, the “Fold change FXYD3 (202489_s_at)” value was 3.827, the “Fold change GAB1 (229114_at)” value was 3.301 and the “Fold change GFOD1 (219821_s_at)” value was 3.679. For the same molecule, the “Fold change GGT6 (236225_at)” value was 3.426, the “Fold change GJB6 (231771_at)” value was 3.289 and the “Fold change GM2A (35820_at)” value was 3.763. The “Fold change GM2A (212737_at)” value was 3.6714, the “Fold change GM2A (235678_at)” value was 3.427 and the “Fold change GPR37 (209631_s_at)” value was 3.265. The “Fold change GPR126 (213094_at)” value was 3.256, the “Fold change GPT2 (224839_s_at)” value was 3.555 and the “Fold change GRHL1 (222830_at)” value was 3.044. For the same molecule, the “Fold change GSTA4 (235405_at)” value was 3.3 and the “Fold change H19 (224646_x_at)” value was 3.532.
